From paper PMC10721329, “Quisinostat is a brain-penetrant radiosensitizer in glioblastoma” (JCI Insight, 2023)
Where “and” joins values, the source holds several entries; their conditions need not be identical. Equal values may be shown once.

Legend:
[1] = cited from earlier work
[2] = tested on: 7 patient-derived GSC lines and U87; assay: Dose-titration cell viability assay, whole panel; type: cell-based; settings: Homo sapiens; 7 GSC lines and U87; 3-5 days; read-out: cellular IC50 in all lines
Description: QST (JNJ-26481585) is a second-generation hydroxamic acid harboring remarkable selectivity toward class I HDACs, with a biochemical IC50 of 0.1 nM for HDAC1 ([13]). […] To determine the cytotoxic effects of QST, we performed a dose-titration cell viability assay in 7 patient-derived GSC lines (BT145, GB187, GB239, GB282, GB71, GB82, and GB126) and 1 long-term serum-grown human GBM cell line (U87). Because GBMs display a high degree of intratumoral heterogeneity, we used GSCs derived from both primary and recurrent GBMs that harbored distinct genetic mutations or aberrations, growth rates, MGMT promoter methylation status, and gene expression profiles (Supplemental Figure 1; supplemental material available online with this article; https://doi.org/10.1172/jci.insight.167081DS1). Cell lines were treated with various concentrations of QST (10–1000 nM), and cell viability was measured 3–5 days later (Figure 1, A and B). […]
GSCs were seeded in laminin-coated tissue culture–treated 96-well plates (clear bottom, white plate; Corning) at a density of 1000–5000 cells per well (cell line dependent) in GSC media. […] Following treatment with QST, cells were grown for 3 to 5 days (cell line dependent), and cell viability was measured and quantified. […]

[3] = Stability in mouse plasma at 37°C; type: in vitro ADME; settings: for [QST] mouse plasma at 37C, raw response / [QST], % of control: replicates; for [QST], % of control: mouse plasma
Description: Hydroxamic acid–based compounds have been reported to display poor stability and high plasma clearance due to the presence of arylesterases and carboxylesterases in rodent blood ([34]). Therefore, we measured the stability of QST in mouse plasma and brain to determine whether drug degradation occurred during our sample preparations and equilibrium dialyses for the determination of unbound drug level (performed at 37°C). […] QST degradation was also observed in mouse brain homogenate (Figure 6B). However, perfusion of mice before brain collection prevented rapid drug degradation in the brain matrix. […] Degradation of QST can also be constrained if plasma and brain samples are processed at 4°C (Supplemental Figure 4A). All subsequent sample preparations were therefore performed on ice-cold baths to avoid degradation of QST in our PK analyses. […] The observed stability is probably due to the absence of esterases in human matrices, which are responsible for degradation of QST ([34]). Because we employed QST in several in vitro studies (Figures 1–4), the stability of the molecule was also tested in the cell media used to culture GSCs (neurobasal medium; see Methods).
Stability Study in Mouse Plasma, Mouse Brain, Human Plasma, Human Brain, and Neural […]
The stability of QST was determined in BALB/c mouse plasma, male nude athymic perfused and nonperfused mouse brain homogenate (1:9 w/v of PBS; pH 7.4), human brain (obtained from VRL Eurofins) homogenate (1:4 w/v of PBS; pH 7.4), pooled human plasma (Innovative Research), and neurobasal media. QST stock solutions (1 mM) were prepared in acetonitrile, subsequently diluted in a 40% methanol mixture, and added t o the matrices to make […]
[…] Then 50 or 30 µL of either plasma or brain homogenate containing QST were aliquoted into 1.5-mL microcentrifuge tubes (Eppendorf) and were incubated at either 4 °C or 37 °C for 0, 2, 4, 6, 12, or 24 hours (n = 3 at each time point).
The stability of QST in mouse plasma was also tested at 0, 2, 8, 16, or 24 hours (n = 3 at each time point) in the presence of esterase inhibitors: 0.25 mM BNPP, 1mM dithiobis(2-nitrobenzoic acid) (DTNB), or 1.25 mM phenylmethylsulfonyl fluoride (PMSF). Plasma and brain homogenate samples were stored at −80 °C until LC-MS/MS analysis. […]

Cn1cc(CNCC2CCN(c3ncc(C(=O)NO)cn3)CC2)c2ccccc21 [QST, quisinostat]
maximum-tolerated dose ([1]; patients, given 3 times weekly): 12 mg
hematologic toxicities (grade 1 and 2), share of patients ([1]; phase I trials): < 5%
IC50 [2]: 50 to 100 nM
[QST] mouse plasma at 37C, raw response, Average ([3]; 500 nM, Time 0): 1.911
[QST] mouse plasma at 37C, raw response ([3]; 500 nM, Time 0): 1.823 and 1.9096 and 2.002
[QST] mouse plasma at 37C, raw response, Average ([3]; 500 nM, Time 1): 0.7582
[QST] mouse plasma at 37C, raw response ([3]; 500 nM, Time 1): 0.7296 and 0.7817 and 0.7634
[QST] mouse plasma at 37C, raw response, Average ([3]; 500 nM, Time 2): 0.2892
[QST] mouse plasma at 37C, raw response ([3]; 500 nM, Time 2): 0.2668 and 0.314 and 0.2868
[QST] mouse plasma at 37C, raw response, Average ([3]; 500 nM, Time 4): 0.02578
[QST] mouse plasma at 37C, raw response, Average ([3]; 500 nM, Time 8): 0.00189
[QST] mouse plasma at 37C, raw response ([3]; 500 nM, Time 8): 0.00167 and 0.04867 and 0.00211
half-life ([3]; BALB/c, mouse, plasma, 37°C, 8-hour incubation): ~1 h
[QST] mouse plasma at 37C, raw response ([3]; Time 4): 0.02689 and 0.02585 and 0.0246
[QST], % of control ([3]; 10 nM, Time 6 hrs): 2.9% and 3.1% (2×)
[QST], % of control ([3]; 10 nM, Time 12 hrs): 2.6% and 2% and 2.1%
[QST], % of control ([3]; 100 nM, Time 6 hrs): 1.4% (2×) and 1.3%
[QST], % of control ([3]; 100 nM, Time 12 hrs): 0.1% (2×) and 2.5%
